Source: patent US10934294B2, “Substituted pyrazolo[3,4-d]pyrimidines as PDE9 inhibitors” (Merck Sharp & Dohme Corp., priority 2017, dated 2021)
pKi: −log10 of the molar value. Like-named read-outs stand apart in the source and are kept apart here.

Biological target: Human PDE9 (PDE9A2) (Homo sapiens (Human), UniProt O76083)
Assay: PDE9 IMAP fluorescence polarization (FP) inhibition assay
Type: biochemical
[1] = apparent inhibition constant, FAM-cGMP substrate 50 nM, room temperature, read-out: PDE9 IMAP Ki
[2] = read-out: PDE9 IMAP Ki, apparent inhibition constant, FAM-cGMP substrate 50 nM, room temperature

Sequence of Human PDE9 (PDE9A2) (O76083 other isoform, or with tags, fused parts or gaps): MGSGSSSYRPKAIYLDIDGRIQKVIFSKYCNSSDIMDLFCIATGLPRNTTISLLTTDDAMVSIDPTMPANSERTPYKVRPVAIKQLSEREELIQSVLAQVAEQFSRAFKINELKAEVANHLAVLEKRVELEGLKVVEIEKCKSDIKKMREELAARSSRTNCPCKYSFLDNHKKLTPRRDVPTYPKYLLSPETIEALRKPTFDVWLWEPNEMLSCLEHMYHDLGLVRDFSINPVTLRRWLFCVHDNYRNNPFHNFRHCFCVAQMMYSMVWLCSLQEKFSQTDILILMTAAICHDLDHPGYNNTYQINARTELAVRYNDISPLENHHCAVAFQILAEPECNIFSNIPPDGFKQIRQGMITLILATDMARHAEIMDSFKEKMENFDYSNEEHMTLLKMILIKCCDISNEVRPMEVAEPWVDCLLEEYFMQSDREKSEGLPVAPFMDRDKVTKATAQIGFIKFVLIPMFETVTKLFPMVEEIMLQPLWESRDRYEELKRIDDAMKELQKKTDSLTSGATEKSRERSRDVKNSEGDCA

Structure (SMILES) | pKi | pKi [1] | further results
CC(c1cncc(F)c1)n1nc(C#N)c2c(=O)[nH]c(C3CCC3c3ncccn3)nc21 (single isomer, unassigned) [Example 64, 1-(1-(5-fluoropyridin-3-yl)ethyl)-4-oxo-6-(2-(pyrimidin-2-yl)cyclobutyl)-4,5-dihydro-1H-pyrazolo[3,4-d]pyrimidine-3-carbonitrile] | < 7.17 | – | –
CC(c1cnn(C)c1)n1nc(C#N)c2c(=O)[nH]c(C3CCC3c3ncccn3)nc21 (centres unmarked) [Example 71, 1-(1-(1-methyl-1H-pyrazol-4-yl)ethyl)-4-oxo-6-(2-(pyrimidin-2-yl)cyclobutyl)-4,5-dihydro-1H-pyrazolo[3,4-d]pyrimidine-3-carbonitrile] | < 7.17 | – | –
C[C@H](c1ccc(C(F)(F)F)nc1)n1nc(C#N)c2c(=O)[nH]c([C@@H]3CC[C@H]3c3nc(C(F)F)cc(C(F)F)n3)nc21 [Example 116, 6-((1R,2R)-2-(4,6-bis(difluoromethyl)pyrimidin-2-yl)cyclobutyl)-4-oxo-1-((R)-1-(6-(trifluoromethyl)-pyridin-3-yl)ethyl)-4,5-dihydro-1H-pyrazolo[3,4-d]pyrimidine-3-carbonitrile] | – | 8.08 | –
CC(c1cncc(F)c1)n1nc(C#N)c2c(=O)[nH]c(C3CCC3c3ncccn3)nc21 (single isomer, unassigned) [Example 65, 1-(1-(5-fluoropyridin-3-yl)ethyl)-4-oxo-6-(2-(pyrimidin-2-yl)cyclobutyl)-4,5-dihydro-1H-pyrazolo[3,4-d]pyrimidine-3-carbonitrile] | – | – | pKi [2]: < 7.17
CC(c1cnn(C)c1)n1nc(C#N)c2c(=O)[nH]c(C3CCC3c3ncccn3)nc21 (single isomer, unassigned) [Example 68, 1-(1-(1-methyl-1H-pyrazol-4-yl)ethyl)-4-oxo-6-(2-(pyrimidin-2-yl)cyclobutyl)-4,5-dihydro-1H-pyrazolo[3,4-d]pyrimidine-3-carbonitrile] | < 7.17 | – | –
CC(c1cnn(C)c1)n1nc(C#N)c2c(=O)[nH]c(C3CCC3c3ncccn3)nc21 (single isomer, unassigned) [Example 69, 1-(1-(1-methyl-1H-pyrazol-4-yl)ethyl)-4-oxo-6-(2-(pyrimidin-2-yl)cyclobutyl)-4,5-dihydro-1H-pyrazolo[3,4-d]pyrimidine-3-carbonitrile] | – | – | pKi [2]: < 7.17
CC(c1cncc(F)c1)n1nc(C#N)c2c(=O)[nH]c(C3CCC3c3ncccn3)nc21 (centres unmarked) [Example 66, 1-(1-(5-fluoropyridin-3-yl)ethyl)-4-oxo-6-(2-(pyrimidin-2-yl)cyclobutyl)-4,5-dihydro-1H-pyrazolo[3,4-d]pyrimidine-3-carbonitrile] | – | < 7.17 | –
CC(C1CCOCC1)n1nc(C#N)c2c(=O)[nH]c(C3CCC3c3ncc(F)cn3)nc21 (centres unmarked) [Example 85, 6-(2-(5-fluoropyrimidin-2-yl)cyclobutyl)-4-oxo-1-(1-(tetrahydro-2H-pyran-4-yl)ethyl)-4,5-dihydro-1H-pyrazolo[3,4-d]pyrimidine-3-carbonitrile] | – | < 6.22 | –
